The target of test [1] is T1, T. cruzi PMM and GDP-MP enzymes (Trypanosoma cruzi, UniProt Q4CMK4). Nature of the test: standard configuration PMM-GDP-MP biochemical assay. The note with it: for pIC50: library stock material, mean n=2; for pIC50 ± SD: repurchased material, n=3. The method, then:
(§1) All enzyme and substrate solution dilutions were prepared in assay buffer comprising 25 mM Tris-HCl (pH 7.5), 150 mM NaCl, 4 mM MgCl2, 0.01% (vol/vol) Tween 20, and 1 mM dithiothreitol in ultrapure water. Biochemical assays were performed in a 50-μl final assay volume using clear 384-well assay microplates (Greiner, catalog no. 781101) at room temperature. Unless stated otherwise, all reagent concentrations are written as final biochemical assay concentrations, and DMSO or compounds were added to assay plates using Echo acoustic dispensers (Labcyte). Reagent addition for high-throughput screening assays was performed using an Xrd-384 liquid dispenser (FluidX, UK) and a BioFill Solo/Xrd-384 16 channel resin nozzle (2.00 to 200 μl) tubing cartridge (FluidX, catalog no. 34-1005-S). Biochemical reactions were terminated by addition of 50 μl of BIOMOL Green (Enzo Life Sciences, catalog no. BML-AK111-1000) reagent, after which absorbance was measured following a 30-min incubation at room temperature. Absorbance measurements were performed at 650 nm using a PHERAStar microplate reader (BMG Labtech, Germany), and the data are represented as relative absorbance units (RAU). Linear and nonlinear regression was performed using the SigmaPlot 12.5 software, unless stated otherwise.
Single-point diversity screening was performed using the standard configuration PMM-GDP-MP biochemical assay and microplates containing compounds in columns 1 to 22 from two diverse small-molecule compound sets covering traditional small-molecule chemical space (DDD, 9,257 compounds; molecular weights between 185.2 and 492.2) and more three-dimensional chemical space (GHCDL, 8,860 compounds; molecular weights between 190.24 and 449.3) at a final concentration of 10 μM (final DMSO concentration = 0.1% [vol/vol]) or a small polar set (16,845 primarily fragment-sized compounds with increased polarity; molecular weights between 88.1 and 476.0) at a final concentration of 300 μM (final DMSO concentration = 0.3% [vol/vol]). Columns 23 and 24 both contained DMSO (either 0.1 or 0.3% [vol/vol] at final assay concentration) and were utilized as “maximum effect” and “minimum effect” control populations, respectively. For screening purposes, 25 μl of a solution containing PMM and GDP-MP enzymes (6.25 and 3.13 nM, respectively) was added to columns 1 to 23, and 25 μl of buffer only was added to column 24. This was followed by the addition of 25 μl of a mixture containing inorganic pyrophosphatase (1 U/ml) and substrates/cofactors (150 μM GTP, 45 μM M-6-P, and 6 μM G-1,6,-BP). The assay plates were incubated at room temperature for 90 min. At the end of the incubation period, the biochemical reactions were terminated, and absorbance measurements were taken. Robust Z′ values were calculated for each assay microplate using the following equation: Robust Z’=1 –((3 ×(1.483 ×(RAU MAD Max)))+(3 ×(1.483 ×(RAU MAD Min))))/(median RAU Max− median RAU Min) where MAD is the median absolute deviation, Max are the maximum effect control samples, and Min are the minimum effect control samples.
RAU values were normalized to percent inhibition values relative to the maximum and minimum effect control populations, and compounds displaying percent inhibition values of ≥30% were selected as hits. Data were processed using IDBS ActivityBase 8.1.2.12 and Dotmatics Limited Vortex v2017.08.69598-59-s software.
Concentration-response assessment of hits using the PMM-GDP-MP assays was performed by adding 25 μl of a solution of PMM and GDP-MP enzymes (6.25 and 3.13 nM, respectively) to columns 1 to 11 and 13 to 23 of microplates containing various concentrations of compounds (10 final assay concentrations ranging from […] at 1 in 3 dilution increments in the presence of 1% [vol/vol] DMSO). Buffer only (25 μl) was added to columns 12 and 24. […]

Test [2] deals with T2, T. cruzi GDP-MP (Trypanosoma cruzi, UniProt Q4CMK4). In words: standard configuration GDP-MP biochemical assay. The method, then:
as §1
Concentration-response assessment of hits using the PMM-GDP-MP assays was performed by adding 25 μl of a solution of PMM and GDP-MP enzymes (6.25 and 3.13 nM, respectively) to columns 1 to 11 and 13 to 23 of microplates containing various concentrations of compounds (10 final assay concentrations ranging from […] at 1 in 3 dilution increments in the presence of 1% [vol/vol] DMSO). Buffer only (25 μl) was added to columns 12 and 24. Columns 11 and 23 were utilized as “maximum effect” control populations (1% [vol/vol] DMSO with enzyme), and columns 12 and 24 were “minimum effect” control populations (1% [vol/vol] DMSO in the absence of enzyme). This was followed by the addition of 25 μl of a mixture containing inorganic pyrophosphatase (1 U/ml) and substrates/cofactors (150 μM GTP, 45 μM M-6-P, and 6 μM G-1,6-BP for the standard configuration assay and 150 μM GTP, 225 μM M-6-P, and 30 μM G-1,6-BP for the high-substrate configuration assay) to the entire assay plate. The standard configuration assay plates were incubated at room temperature for 90 min, and the high-substrate configuration assay plates were incubated for 80 min. Standard and high-substrate configuration GDP-MP assay compound concentration-response assessments were performed as described above by incubating GDP-MP enzyme (3.13 or 0.78 nM) in the presence of GTP (30 or 300 μM), M-1-P (15 or 150 μM), and inorganic pyrophosphatase (1 U/ml) for 50 min at room temperature. Pyrophosphatase counterscreen concentration-response assessments were performed by preincubating compounds with inorganic pyrophosphatase (1 U/ml) for 90 min at room temperature, followed by the addition of inorganic pyrophosphate (10 μM) and a secondary 5-min incubation at room temperature. At the end of the incubation periods, the biochemical reactions were terminated and absorbance measurements were taken. RAU values were normalized to % inhibition values relative to the maximum and minimum effect control populations. pIC50 values, defined as –log[IC50(M)], were calculated by fitting concentration-response data for each independent replicate separately to a four-parameter logistic model, as shown below, using either the IDBS ActivityBase 8.1.2.12 or SigmaPlot 12.5 software. Where appropriate, the top curve plateau parameter was constrained to a value of 100.
The four-parameter logistic model was as follows, where Min is the minimum asymptote and Max is the maximum asymptote: y=Min+Max – Min/1+(10^−logIC50/x)^Hill slope

Test [3] deals with T1, T. cruzi PMM and GDP-MP enzymes. Nature of the test: high-substrate configuration PMM-GDP-MP biochemical assay. To be noted: repurchased material, n=3. As for the experimental part: as §1, with “otherwise. […]” for “otherwise.”
The target of test [4] is T2, T. cruzi GDP-MP. In words: high-substrate configuration GDP-MP biochemical assay. To be noted: for IC50: GDP-MP, high-substrate configuration, repurchased material, n=3; for mode of inhibition of GDP-MP: from comparison of standard and high-substrate (10-fold) configuration GDP-MP assays. The method, then: as §1
Concentration-response assessment of hits using the PMM-GDP-MP assays was performed by adding 25 μl of a solution of PMM and GDP-MP enzymes (6.25 and 3.13 nM, respectively) to columns 1 to 11 and 13 to 23 of microplates containing various concentrations of compounds (10 final assay concentrations ranging from 990 to 1.92 μM at 1 in 3 dilution increments in the presence of 1% [vol/vol] DMSO). Buffer only (25 μl) was added to columns 12 and 24. Columns 11 and 23 were utilized as “maximum effect” control populations (1% [vol/vol] DMSO with enzyme), and columns 12 and 24 were “minimum effect” control populations (1% [vol/vol] DMSO in the absence of enzyme). This was followed by the addition of 25 μl of a mixture containing inorganic pyrophosphatase (1 U/ml) and substrates/cofactors (150 μM GTP, 45 μM M-6-P, and 6 μM G-1,6-BP for the standard configuration assay and 150 μM GTP, 225 μM M-6-P, and 30 μM G-1,6-BP for the high-substrate configuration assay) to the entire assay plate. […] At the end of the incubation periods, the biochemical reactions were terminated and absorbance measurements were taken. RAU values were normalized to % inhibition values relative to the maximum and minimum effect control populations. pIC50 values, defined as –log[IC50(M)], were calculated by fitting concentration-response data for each independent replicate separately to a four-parameter logistic model, as shown below, using either the IDBS ActivityBase 8.1.2.12 or SigmaPlot 12.5 software. […]

A further test has as its system T. cruzi GDP-MP enzyme. Nature of the test: Km determination with the GDP-MP assay. Format: biochemical. The method, then: as §1
To calculate the Michaelis constant (Km) for the M-1-P substrate, 20-min time course reactions using a fixed concentration of GDP-MP enzyme (3.13 nM), a saturating concentration of GTP substrate (600 μM) mixed with inorganic pyrophosphatase (1 U/ml; Merck, catalogue no. I5907-1MG), and various concentrations of M-1-P substrate (150, 75, 37.5, 18.8, 9.38, 4.69, and 2.34 μM) were performed. The Km for the GTP substrate was acquired in a similar manner using a saturating concentration of M-1-P (150 μM) and various concentrations of GTP substrate (300, 150, 75, 37.5, 18.8, 9.38, and 4.69 μM). In both cases, background control samples were also included that lacked the presence of GDP-MP enzyme. At the end of the time courses, the biochemical reactions were terminated, and absorbance measurements were taken. […]

[5] abbreviates: library stock material, n=1, read-out: pIC50 (converted).
[6] abbreviates: repurchased material, n=3, read-out: pIC50 ± SD (converted).

Structures are written as SMILES. Where only a bound is given, the exact number is not on record here.

T2 sequence (Q4CMK4 entry or part of it): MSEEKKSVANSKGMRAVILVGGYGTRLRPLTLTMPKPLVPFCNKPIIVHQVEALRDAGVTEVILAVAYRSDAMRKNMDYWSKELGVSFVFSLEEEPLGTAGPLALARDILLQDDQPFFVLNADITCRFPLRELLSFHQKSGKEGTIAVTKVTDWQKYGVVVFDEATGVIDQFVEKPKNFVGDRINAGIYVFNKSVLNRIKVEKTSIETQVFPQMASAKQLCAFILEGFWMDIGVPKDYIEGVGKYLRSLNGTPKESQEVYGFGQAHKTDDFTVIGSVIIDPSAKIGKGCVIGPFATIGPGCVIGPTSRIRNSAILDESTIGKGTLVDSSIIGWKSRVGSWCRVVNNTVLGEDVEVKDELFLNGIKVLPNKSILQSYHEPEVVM
T1 sequence (Q4CMK4 entry or part of it): as above
T1 sequence (Q4E4A3 entry or part of it, further chain): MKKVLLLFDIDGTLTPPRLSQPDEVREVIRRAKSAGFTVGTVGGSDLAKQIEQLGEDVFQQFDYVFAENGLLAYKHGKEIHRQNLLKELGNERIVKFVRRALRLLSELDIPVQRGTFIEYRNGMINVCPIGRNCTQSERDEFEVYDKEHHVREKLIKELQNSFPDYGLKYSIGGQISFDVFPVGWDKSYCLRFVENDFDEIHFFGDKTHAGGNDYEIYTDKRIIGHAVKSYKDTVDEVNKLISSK

Usually pIC50 stands for the IC50 on a negative log10 scale, so that one unit is a factor of ten. A high value points to a low IC50. Take `N[C@H]1CCN(CCCOc2ccc(C(=O)O)cc2)C1` [compound 4]: the pIC50 in test [1] is reported as 4.0 (2). In addition, the IC50 on T. cruzi GDP-MP [2] (setting [5]) was 158 µM.
As for `c1ccn2c(CNCCCN3CCC3)cnc2c1` [compound 2], the “pIC50 ± SD” value in test [3] is 3.2 ± 0.2 (3); in test [1] it was 3.1 ± 0.2 (3). Besides, the IC50 against T. cruzi GDP-MP [4] is 794 µM; at T. cruzi GDP-MP [2] (setting [5]), above 1000 µM; on T. cruzi GDP-MP [2] (setting [6]) it was above 1000 µM. On T. cruzi GDP-MP [4], the “mode of inhibition of GDP-MP” value is on record as “uncompetitive inhibition”. The pIC50 in test [1] is listed as 3.6 (2).
`CC(C)C(C(=O)O)N1C(=O)C=CC1=O` (stereo not drawn) [compound 1]: the pIC50 in test [1] was 4.9 (2). For the same molecule, the IC50 on T. cruzi GDP-MP [2] (setting [5]) was 25.1 µM.
`CC(=O)OCc1cc(-c2csc(N)n2)ccc1O` [compound 3]: the entries for the “pIC50 ± SD” value in test [3] and in test [1] were 3.6 ± 0.1 (3) and 3.9 ± 0.2 (3), respectively. Further, the IC50 at T. cruzi GDP-MP [4] was 316 µM; on T. cruzi GDP-MP [2] (setting [5]), 158 µM; at T. cruzi GDP-MP [2] (setting [6]), 126 µM. The “mode of inhibition of GDP-MP” value on T. cruzi GDP-MP [4] is listed as “competitive inhibition”. Moreover, the pIC50 in test [1] is on record as 3.5 (2).
For `Nc1nc2c(ncn2[C@@H]2O[C@H](COP(=O)(O)OP(=O)(O)OP(=O)(O)O)[C@@H](O)[C@H]2O)c(=O)[nH]1` [GTP], in the test with T. cruzi GDP-MP enzyme (vs L. donovani GDP-MP), the “GTP Km of T. cruzi GDP-MP, fold higher than reported for L. donovani” value was determined as 2.4 fold. In the test on T. cruzi GDP-MP enzyme (vs L. major GDP-MP), the “GTP Km of T. cruzi GDP-MP, fold higher than reported for L. major” value stood at 27 fold. Also, the “GTP Km of T. cruzi GDP-MP, fold higher than reported for L. mexicana” value in the test with T. cruzi GDP-MP enzyme (vs L. mexicana GDP-MP) was 5.3 fold.

Source of the values: paper PMC6761512, “Trypanosoma cruzi Phosphomannomutase and Guanosine Diphosphate-Mannose Pyrophosphorylase Ligandability Assessment” (Antimicrobial Agents and Chemotherapy, 2019).
